Data published in patent US8673856B2 (Anygen Co., Ltd., priority 2006, dated 2014).

What was measured:
Sprague-Dawley male rats [1] = details: rat, in vivo
ICR mice [2] = details: mouse, in vivo
[3] = target: T1, human N-type calcium channel (Homo sapiens, UniProt Q00975); type: cell-based
T1 construct: expressed in transfected cells; host or cells: HEK 293 (human embryonic kidney) cells

Sprague-Dawley male rats [4] = details: rat, in vivo, iv
ICR mice [5] = details: mouse, in vivo; remark: listed apart in the source
ICR mice [6] = details: mouse, in vivo, ip
Sprague-Dawley male rats [7] = details: rat, in vivo; remark: listed apart in the source
ICR mice [8] = details: mouse, in vivo; remark: listed apart in the source
ICR mice [9] = details: mouse, in vivo; remark: listed apart in the source
[10] = target: T1, human N-type calcium channel; type: cell-based; remark: listed apart in the source
Sprague-Dawley male rats [11] = details: rat, in vivo; remark: listed apart in the source
ICR mice [12] = details: mouse, in vivo; remark: listed apart in the source

T1 sequence (Q00975 whole entry, looked up): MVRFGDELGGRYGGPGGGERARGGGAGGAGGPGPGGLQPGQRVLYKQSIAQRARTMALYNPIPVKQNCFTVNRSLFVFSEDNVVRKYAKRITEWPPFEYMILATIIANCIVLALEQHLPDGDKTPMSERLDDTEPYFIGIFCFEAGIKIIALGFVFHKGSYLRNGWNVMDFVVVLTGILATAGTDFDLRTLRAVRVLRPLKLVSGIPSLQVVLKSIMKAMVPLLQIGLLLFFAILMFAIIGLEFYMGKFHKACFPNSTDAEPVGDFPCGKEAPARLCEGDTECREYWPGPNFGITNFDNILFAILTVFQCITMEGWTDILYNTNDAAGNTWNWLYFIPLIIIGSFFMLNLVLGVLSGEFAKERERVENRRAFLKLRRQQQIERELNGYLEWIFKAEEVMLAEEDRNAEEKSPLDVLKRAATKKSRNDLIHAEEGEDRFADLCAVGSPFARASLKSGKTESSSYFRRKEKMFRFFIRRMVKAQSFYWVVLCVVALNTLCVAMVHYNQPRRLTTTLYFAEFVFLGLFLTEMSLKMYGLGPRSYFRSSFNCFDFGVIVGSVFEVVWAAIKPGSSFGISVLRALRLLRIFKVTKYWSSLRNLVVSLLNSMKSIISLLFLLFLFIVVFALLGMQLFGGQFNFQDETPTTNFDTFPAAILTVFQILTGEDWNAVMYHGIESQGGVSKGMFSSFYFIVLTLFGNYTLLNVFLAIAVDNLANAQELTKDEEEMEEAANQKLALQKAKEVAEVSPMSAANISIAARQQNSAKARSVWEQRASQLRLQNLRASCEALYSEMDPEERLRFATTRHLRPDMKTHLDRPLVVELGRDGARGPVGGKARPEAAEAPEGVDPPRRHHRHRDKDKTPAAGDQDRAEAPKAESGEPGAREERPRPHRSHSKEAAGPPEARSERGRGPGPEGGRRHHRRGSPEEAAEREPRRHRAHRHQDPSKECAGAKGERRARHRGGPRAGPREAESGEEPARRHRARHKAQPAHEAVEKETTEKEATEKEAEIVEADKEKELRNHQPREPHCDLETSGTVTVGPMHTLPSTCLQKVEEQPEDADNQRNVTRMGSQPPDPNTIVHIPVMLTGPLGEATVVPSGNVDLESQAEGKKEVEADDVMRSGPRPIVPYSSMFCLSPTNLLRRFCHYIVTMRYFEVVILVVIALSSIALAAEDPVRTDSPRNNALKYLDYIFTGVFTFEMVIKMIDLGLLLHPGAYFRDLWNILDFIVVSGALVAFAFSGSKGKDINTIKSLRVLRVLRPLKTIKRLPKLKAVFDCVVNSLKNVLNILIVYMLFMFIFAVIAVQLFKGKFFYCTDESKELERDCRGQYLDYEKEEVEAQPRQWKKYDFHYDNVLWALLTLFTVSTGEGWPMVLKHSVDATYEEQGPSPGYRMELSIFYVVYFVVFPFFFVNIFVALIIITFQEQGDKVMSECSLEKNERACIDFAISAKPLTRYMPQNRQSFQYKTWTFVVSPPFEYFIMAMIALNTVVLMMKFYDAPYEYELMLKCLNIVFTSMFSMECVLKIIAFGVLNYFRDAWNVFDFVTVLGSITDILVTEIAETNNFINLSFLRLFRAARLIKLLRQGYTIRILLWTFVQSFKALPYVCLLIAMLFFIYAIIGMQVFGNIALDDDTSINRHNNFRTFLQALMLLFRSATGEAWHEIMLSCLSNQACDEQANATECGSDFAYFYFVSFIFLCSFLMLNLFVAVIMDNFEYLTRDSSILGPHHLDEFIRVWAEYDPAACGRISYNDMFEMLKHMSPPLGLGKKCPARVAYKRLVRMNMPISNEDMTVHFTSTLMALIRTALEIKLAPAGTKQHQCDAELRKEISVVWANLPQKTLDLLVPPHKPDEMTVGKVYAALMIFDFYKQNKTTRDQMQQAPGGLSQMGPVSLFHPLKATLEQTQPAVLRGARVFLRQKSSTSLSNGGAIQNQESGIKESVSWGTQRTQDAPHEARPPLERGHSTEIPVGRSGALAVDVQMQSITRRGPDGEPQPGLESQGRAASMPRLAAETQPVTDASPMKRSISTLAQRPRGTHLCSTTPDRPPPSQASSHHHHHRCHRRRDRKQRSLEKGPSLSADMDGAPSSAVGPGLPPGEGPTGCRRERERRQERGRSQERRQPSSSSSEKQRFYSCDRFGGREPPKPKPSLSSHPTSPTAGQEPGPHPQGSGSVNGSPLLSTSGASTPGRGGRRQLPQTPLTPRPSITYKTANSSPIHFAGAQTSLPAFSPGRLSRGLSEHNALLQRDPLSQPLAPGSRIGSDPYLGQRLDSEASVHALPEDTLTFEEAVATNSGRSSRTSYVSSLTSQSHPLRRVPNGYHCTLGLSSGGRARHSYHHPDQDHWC

| Molecule | 50% withdrawal threshold, mechanical allodynia (Sprague-Dawley male rats [1]) | Cumulative pain response, substance P-induced (ICR mice [2]) | Dissociation on washout [3] | Mean arterial pressure (MAP) time course (Sprague-Dawley male rats [4]) | Withdrawal latency, tail-flick test (ICR mice [5]) | Count of writhing responses (ICR mice [6]) | Analgesic effect on warm allodynia (Sprague-Dawley male rats [7]) | Cumulative pain response, formalin test (ICR mice [8]) | Dose dependence of analgesic effect, formalin test (ICR mice [8]) | Pain behaviors in the second phase, formalin test (ICR mice [8]) | Cumulative pain response, glutamate-induced (ICR mice [9]) | Current-voltage curve [10] | IC50 ([10]; read-out: IC50 from dose-inhibition curve) | Analgesic effect on cold allodynia (Sprague-Dawley male rats [11]) | Withdrawal latency, plantar test (ICR mice [12]) | Arterial pressure after lapse of time (Sprague-Dawley male rats [4]) | Recovery relative to MVIIA [3] | Calcium channel blocking activity [10] |
| --- | --- | --- | --- | --- | --- | --- | --- | --- | --- | --- | --- | --- | --- | --- | --- | --- | --- | --- |
| CC[C@H](C)[C@@H]1NC(=O)[C@H](CCCNC(=N)N)NC(=O)[C@H](CO)NC(=O)[C@@H]2CSSC[C@@H]3NC(=O)[C@H](CO)NC(=O)CNC(=O)[C@H]([C@@H](C)O)NC(=O)[C@H](CSSC[C@H](N)C(=O)N[C@@H](CCCCN)C(=O)NCC(=O)N[C@@H]([C@@H](C)O)C(=O)NCC(=O)N[C@@H](CCCCN)C(=O)N[C@@H](CO)C(=O)N2)NC(=O)[C@H](CSSC[C@@H](C(N)=O)NC(=O)[C@H](CCCCN)NC(=O)CNC(=O)[C@H](CO)NC(=O)[C@H](CCCNC(=N)N)NC3=O)NC(=O)[C@H](CC(N)=O)NC(=O)[C@H](Cc2ccc(O)cc2)NC(=O)[C@H](C)NC1=O [FVIA, CKGTGKSCSRIAYNCCTGSCRSGKC-NH2] | elevate 50% withdrawal threshold in a dose dependent manner | significantly decreased cumulative pain response rate | better dissociation comparing MVIIA washout | much better recovery in MAP | not effective in increasing withdrawal latency | significantly decreased | exhibits analgesic effects on cold and warm allodynia | significantly decreased cumulative pain response rate in both the first phase and the second phase | analgesic effect in a dose-dependent manner | completely prevented pain behaviors in the second phase | significantly decreased cumulative pain response rate | curve inhibition without the horizontal curve shift | 11.5 ± 1.4 nM | exhibits analgesic effects on cold and warm allodynia | not effective in increasing withdrawal latency | – | – | – |
| CSCC[C@@H]1NC(=O)[C@H](CC(C)C)NC(=O)[C@H](CCCNC(=N)N)NC(=O)[C@H](CO)NC(=O)[C@@H]2CSSC[C@@H]3NC(=O)[C@H](CO)NC(=O)CNC(=O)[C@H]([C@@H](C)O)NC(=O)[C@H](CSSC[C@H](N)C(=O)N[C@@H](CCCCN)C(=O)NCC(=O)N[C@@H](CCCCN)C(=O)NCC(=O)N[C@@H](C)C(=O)N[C@@H](CCCCN)C(=O)N2)NC(=O)[C@H](CSSC[C@@H](C(N)=O)NC(=O)[C@H](CCCCN)NC(=O)CNC(=O)[C@H](CO)NC(=O)[C@H](CCCNC(=N)N)NC3=O)NC(=O)[C@H](CC(=O)O)NC(=O)[C@H](Cc2ccc(O)cc2)NC1=O [MVIIA, CKGKGAKCSRLMYDCCTGSCRSGKC-NH2] | – | – | – | sharp decrease in MAP at an initial stage and slow recovery in MAP | – | – | – | – | – | – | – | – | – | – | – | around 60 mmHg | – | – |
| CKGKGAKCSRIAYNCCTGSCRSGKC-NH2 [Chimera-MFMM] | – | – | – | – | – | – | – | – | – | – | – | – | – | – | – | – | ~2 fold | significant calcium channel blocking activity |
